# Laboratory results published in paper PMC7909954 (eLife, 2021).
# Several values for one entry are separate records, joined by “and”; a condition that tells them apart may be missing. Equal values may be shown once. Entries after “also recorded” stand apart in the source; their conditions may differ.
# Tests used:
# Y312W-hKOR = Y312W-hKOR (Homo sapiens, UniProt P41145, Y312W); experiment: cell-based
# [1] = system: MOR KO, KOR KO and DOR KO mice; experiment: 55°C warm-water tail-withdrawal assay in opioid receptor knock out mice; assay type: in vivo, mouse
# DOR [2] = molecular target: T1, DOR (Homo sapiens, UniProt P41143); experiment: cell-based
# DOR [3] = molecular target: T1, DOR; experiment: Radioligand binding counter-screen (NIMH PDSP); set-up: National Institutes of Mental Health Psychoactive Drug Screen Program (service)
# mKOR = mKOR (Mus musculus, UniProt P33534); experiment: biochemical
# 330 non-olfactory GPCRs = experiment: PRESTO-Tango GPCRome β-arrestin recruitment off-target screen; assay type: cell-based; conditions: 3 μM, follow-up concentration–response
# Experimental: To identify potential off-target activity of MP1207, we used the National Institutes of Mental Health Psychoactive Drug Screen Program. MP1207 was first tested for activity against 330 non-olfactory GPCRs using the PRESTO-Tango GPCRome screening β-arrestin recruitment assay at 3 μM MP1207. The activity at each receptor was measured in quadruplicate.
# Screening of compounds was accomplished using previously described methods with several modifications ([Kroeze et al., 2015]). First, HTLA cells were plated in DMEM with 2% dialyzed FBS and 10 U/mL penicillin-streptomycin. Next, the cells were transfected using an in-plate PEI method ([Longo et al., 2013]). PRESTO-Tango receptor DNAs were resuspended in OptiMEM and hybridized with PEI prior to dilution and distribution into 384-well plates and subsequent addition to cells. After overnight incubation, drugs diluted in DMEM with 1% dialyzed FBS were added to cells without replacement of the medium. The remaining steps of the PRESTO-Tango protocol were followed as previously described.
# Appendix 1—figure 6. […] MP1207 was screened against 330 non-olfactory GPCRs for agonism in the arrestin recruitment TANGO assay. […] MP1207 induces an increase in signal twofold over basal at opioid receptors predominantly at KOR and DOR and much less at MOR.
# MOR = MOR (Homo sapiens, UniProt P35372); experiment: Radioligand binding counter-screen (NIMH PDSP); set-up: NIMH Psychoactive Drug Screening Program
# [4] = DOR KO mice, 100 nmol i.c.v. in 50% DMSO, group mean n=8
# [5] = DOR KO mice, 100 nmol i.c.v. in 50% DMSO, individual mouse
# [6] = KOR KO mice, 100 nmol i.c.v. in 50% DMSO, group mean n=8
# [7] = KOR KO mice, 100 nmol i.c.v. in 50% DMSO, individual mouse
# [8] = KOR KO mice, 100 nmol i.c.v. in 50% DMSO, group mean n=6
# [9] = KOR KO mice, 100 nmol i.c.v., per mouse
# [10] = MP1207 30 nmol icv, MP1208 35 nmol icv
# Chain of mKOR (P33534 whole entry): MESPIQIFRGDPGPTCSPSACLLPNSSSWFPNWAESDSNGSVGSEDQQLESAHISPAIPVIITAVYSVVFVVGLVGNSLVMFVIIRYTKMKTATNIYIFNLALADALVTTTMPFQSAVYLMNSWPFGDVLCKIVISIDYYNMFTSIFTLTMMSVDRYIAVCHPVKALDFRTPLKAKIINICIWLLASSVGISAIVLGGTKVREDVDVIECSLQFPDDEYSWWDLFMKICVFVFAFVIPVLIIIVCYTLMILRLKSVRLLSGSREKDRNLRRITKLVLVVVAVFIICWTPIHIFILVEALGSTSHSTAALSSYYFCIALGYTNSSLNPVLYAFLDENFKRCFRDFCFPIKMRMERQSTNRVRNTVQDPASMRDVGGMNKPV
# T1 sequence (P41143 whole entry): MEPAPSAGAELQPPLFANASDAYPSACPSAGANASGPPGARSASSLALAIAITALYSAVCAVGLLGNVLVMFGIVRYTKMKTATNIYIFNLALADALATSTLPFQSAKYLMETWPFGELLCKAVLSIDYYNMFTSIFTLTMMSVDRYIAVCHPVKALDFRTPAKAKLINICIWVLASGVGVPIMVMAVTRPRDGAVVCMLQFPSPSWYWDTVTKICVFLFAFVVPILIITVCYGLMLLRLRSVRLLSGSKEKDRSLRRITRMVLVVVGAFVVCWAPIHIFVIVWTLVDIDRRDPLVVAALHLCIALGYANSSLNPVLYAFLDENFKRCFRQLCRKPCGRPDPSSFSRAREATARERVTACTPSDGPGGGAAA
# Chain of Y312W-hKOR (P41145 whole entry Y312W): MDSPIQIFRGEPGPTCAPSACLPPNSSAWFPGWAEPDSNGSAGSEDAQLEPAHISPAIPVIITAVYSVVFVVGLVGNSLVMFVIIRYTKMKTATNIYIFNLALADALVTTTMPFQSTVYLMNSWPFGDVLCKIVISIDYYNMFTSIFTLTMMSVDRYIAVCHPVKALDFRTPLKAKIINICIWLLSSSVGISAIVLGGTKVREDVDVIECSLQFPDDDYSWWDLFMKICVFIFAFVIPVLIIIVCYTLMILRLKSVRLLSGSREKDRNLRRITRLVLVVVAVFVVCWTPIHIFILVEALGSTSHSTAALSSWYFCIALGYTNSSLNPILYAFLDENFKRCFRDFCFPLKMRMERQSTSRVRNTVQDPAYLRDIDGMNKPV
# Chain of MOR (P35372 whole entry): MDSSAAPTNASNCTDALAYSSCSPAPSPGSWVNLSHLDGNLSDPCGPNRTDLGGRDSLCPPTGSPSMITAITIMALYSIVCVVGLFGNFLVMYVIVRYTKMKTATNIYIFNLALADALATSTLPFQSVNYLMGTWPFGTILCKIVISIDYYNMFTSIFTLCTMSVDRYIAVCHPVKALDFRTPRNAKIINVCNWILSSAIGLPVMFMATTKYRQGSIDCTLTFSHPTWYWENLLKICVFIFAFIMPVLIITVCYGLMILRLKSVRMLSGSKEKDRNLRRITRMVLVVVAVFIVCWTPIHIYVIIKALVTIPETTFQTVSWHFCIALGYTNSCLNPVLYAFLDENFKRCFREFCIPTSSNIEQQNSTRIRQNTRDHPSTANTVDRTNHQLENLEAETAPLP
compound,measurement,setting,value
"NCc1cccc(C(=O)N[C@@H]2CCC3C4Cc5ccc(O)c6c5[C@@]3(CCN4CC3CC3)C2O6)c1 (stereo partly drawn) [MP1207, 3-(Aminomethyl)-N-((7R,12bS)−3-(cyclopropylmethyl)−9-hydroxy-2,3,4,4a,5,6,7,7a-octahydro-1H-4,12-methanobenzofuro[3,2-e]isoquinolin-7-yl)benzamide]",EC50,Y312W-hKOR,0.16 nM
same,Emax,Y312W-hKOR; read-out: Emax% cAMP inhibition Y312W-hKOR,95 ± 1.8%
same,%A-10 min,[1]; [4],77.68%
same,"tail-withdrawal latency, 10 min",[1]; [4],12.075 s
same,%A-10 min,[1]; [5],100% and 14.62% and 6.82%
same,"tail-withdrawal latency, 10 min",[1]; [5],15 s and 3.9 s and 2.7 s
same,%A-20 min,[1]; [4],75.4713%
same,"tail-withdrawal latency, 20 min",[1]; [4],11.775 s
same,%A-20 min,[1]; [5],100% and 91.85% and 84.33% and 20.77% and 6.82%
same,"tail-withdrawal latency, 20 min",[1]; [5],15 s and 13.9 s and 12.9 s and 4.7 s and 2.7 s
same,%A-30 min,[1]; [4],78.53%
same,"tail-withdrawal latency, 30 min",[1]; [4],12.1875 s
same,%A-30 min,[1]; [5],100% and 13.85% and 14.39%
same,"tail-withdrawal latency, 30 min",[1]; [5],15 s and 3.8 s and 3.7 s
same,%A-40 min,[1]; [4],46.6687%
same,"tail-withdrawal latency, 40 min",[1]; [4],7.925 s
same,%A-40 min,[1]; [5],100% and 51.85% and 38.64% and 23.13% and 45.52% and 89.78% and 12.31% and 12.12%
same,"tail-withdrawal latency, 40 min",[1]; [5],15 s and 8.5 s and 6.9 s and 4.7 s and 7.7 s and 13.6 s and 3.6 s and 3.4 s
same,%A-50 min,[1]; [4],38.3875%
same,"tail-withdrawal latency, 50 min",[1]; [4],6.8 s
same,%A-50 min,[1]; [5],62.12% and 17.04% and 35.61% and 100% and 29.1% and 37.96% and 17.69% and 7.58%
same,"tail-withdrawal latency, 50 min",[1]; [5],10 s and 3.8 s and 6.5 s and 15 s and 5.5 s and 4.3 s and 2.8 s
same,%A-60 min,[1]; [4],43.0038%
same,"tail-withdrawal latency, 60 min",[1]; [4],7.425 s
same,%A-60 min,[1]; [5],62.12% and 55.56% and 25% and 100% and 36.57% and 36.5% and 16.92% and 11.36%
same,"tail-withdrawal latency, 60 min",[1]; [5],10 s and 9 s and 5.1 s and 15 s and 6.5 s and 6.3 s and 4.2 s and 3.3 s
same,%A-70 min,[1]; [4],13.2125%
same,"tail-withdrawal latency, 70 min",[1]; [4],3.4375 s
same,%A-70 min,[1]; [5],10.61% and 9.63% and 20.45% and 13.43% and 5.97% and 19.71% and 9.23% and 16.67%
same,"tail-withdrawal latency, 70 min",[1]; [5],3.2 s and 2.8 s and 4.5 s and 3.4 s and 2.4 s and 4 s
same,%A-80 min,[1]; [4],8.564%
same,"tail-withdrawal latency, 80 min",[1]; [4],2.8125 s
same,%A-80 min,[1]; [5],5.3% and 7.41% and 6.82% and 9.7% and 4.48% and 5.84% and 11.54% and 17.42%
same,"tail-withdrawal latency, 80 min",[1]; [5],2.5 s and 2.7 s and 2.9 s and 2.2 s and 2.1 s and 3.5 s and 4.1 s
same,%A-90 min,[1]; [4],3.185%
same,"tail-withdrawal latency, 90 min",[1]; [4],1.95 s
same,%A-90 min,[1]; [5],3.03% and 3.7% and 0% and 5.11% and 13.64%
same,"tail-withdrawal latency, 90 min",[1]; [5],2.2 s and 2 s and 1.5 s and 1.4 s and 1.1 s and 1.8 s and 3.6 s
same,%A-100 min,[1]; [4],2.474%
same,"tail-withdrawal latency, 100 min",[1]; [4],1.925 s
same,%A-100 min,[1]; [5],0% and 2.22% and 0.75% and 2.24% and 0.73% and 13.85%
same,"tail-withdrawal latency, 100 min",[1]; [5],1.6 s and 1.8 s and 1.4 s and 1.7 s and 1.9 s and 3.8 s
same,%A-110 min,[1]; [4],0.555%
same,"tail-withdrawal latency, 110 min",[1]; [4],1.6125 s
same,%A-110 min,[1]; [5],0% and 2.22% and 1.49% and 0.73%
same,"tail-withdrawal latency, 110 min",[1]; [5],1.3 s and 1.8 s and 1.6 s and 1.4 s and 1.9 s and 1.7 s
same,%A-10 min,[1]; [6],63.4062%
same,"tail-withdrawal latency, 10 min",[1]; [6],10.1 s
same,%A-10 min,[1]; [7],100% and 52.52% and 98.5% and 0% and 0.76%
same,"tail-withdrawal latency, 10 min",[1]; [7],15 s and 8.4 s and 14.8 s and 1.8 s and 1.9 s
same,%A-20 min,[1]; [6],39.6638%
same,"tail-withdrawal latency, 20 min",[1]; [6],6.8125 s
same,%A-20 min,[1]; [7],34.59% and 36.76% and 15.83% and 23.31% and 0% and 6.82%
same,"tail-withdrawal latency, 20 min",[1]; [7],6.3 s and 6.4 s and 3.3 s and 4.8 s and 1 s and 2.7 s
same,%A-30 min,[1]; [6],26.1938%
same,"tail-withdrawal latency, 30 min",[1]; [6],5.125 s
same,%A-30 min,[1]; [7],21.8% and 44.85% and 16.55% and 0% and 4.55%
same,"tail-withdrawal latency, 30 min",[1]; [7],4.6 s and 7.5 s and 3.4 s and 2.2 s and 2.4 s
same,%A-40 min,[1]; [6],17.335%
same,"tail-withdrawal latency, 40 min",[1]; [6],3.9125 s
same,%A-40 min,[1]; [7],14.29% and 16.91% and 15.83% and 12.78% and 7.81% and 6.82%
same,"tail-withdrawal latency, 40 min",[1]; [7],3.6 s and 3.7 s and 3.3 s and 3.4 s and 3.2 s and 2.7 s
same,%A-50 min,[1]; [6],20.3588%
same,"tail-withdrawal latency, 50 min",[1]; [6],4.2125 s
same,%A-50 min,[1]; [7],11.28% and 27.21% and 10.07% and 32.33% and 0% and 6.06%
same,"tail-withdrawal latency, 50 min",[1]; [7],3.2 s and 5.1 s and 2.5 s and 6 s and 1.3 s and 2.6 s
same,%A-60 min,[1]; [6],11.2062%
same,"tail-withdrawal latency, 60 min",[1]; [6],3.0875 s
same,%A-60 min,[1]; [7],3.76% and 12.5% and 6.47% and 0.75% and 6.25% and 1.52%
same,"tail-withdrawal latency, 60 min",[1]; [7],2.2 s and 3.1 s and 2 s and 1.8 s and 3 s
same,%A-70 min,[1]; [6],9.87%
same,"tail-withdrawal latency, 70 min",[1]; [6],2.85 s
same,%A-70 min,[1]; [7],5.26% and 19.85% and 3.6% and 7.52% and 0% and 10.61%
same,"tail-withdrawal latency, 70 min",[1]; [7],2.4 s and 4.1 s and 1.6 s and 2.7 s and 1.8 s and 3.2 s
same,%A-80 min,[1]; [6],8.631%
same,"tail-withdrawal latency, 80 min",[1]; [6],2.725 s
same,%A-80 min,[1]; [7],1.5% and 30.88% and 2.16% and 12.78% and 3.91% and 8.33%
same,"tail-withdrawal latency, 80 min",[1]; [7],1.9 s and 5.6 s and 1.4 s and 3.4 s and 2.7 s and 2.9 s
same,%A-90 min,[1]; [6],1.379%
same,"tail-withdrawal latency, 90 min",[1]; [6],1.7125 s
same,%A-90 min,[1]; [7],0% and 0.74% and 0.72% and 0.78% and 0.76%
same,"tail-withdrawal latency, 90 min",[1]; [7],1.5 s and 1.2 s and 1.6 s and 2.3 s and 1.9 s
same,%A-100 min,[1]; [8],1.217%
same,"tail-withdrawal latency, 100 min",[1]; [8],1.55 s
same,%A-100 min,[1]; [7],0.75% and 1.47% and 2.16% and 0%
same,"tail-withdrawal latency, 100 min",[1]; [7],1.8 s and 1.6 s and 1.4 s and 1.5 s
same,%A-110 min,[1]; [8],0.365%
same,"tail-withdrawal latency, 110 min",[1]; [8],1.467 s
same,%A-110 min,[1]; [7],0% and 0.74% and 0.72%
same,"tail-withdrawal latency, 110 min",[1]; [7],1.7 s and 1.5 s and 1.2 s
same,%A-10 min,[1]; [9],100% and 55.47%
same,"tail-withdrawal latency, 10 min",[1]; [9],15 s and 8.9 s
same,%A-20 min,[1]; [9],100%
same,"tail-withdrawal latency, 20 min",[1]; [9],15 s
same,%A-30 min,[1]; [9],38.69% and 61.31%
same,"tail-withdrawal latency, 30 min",[1]; [9],6.6 s and 9.7 s
same,%A-40 min,[1]; [9],31.39% and 32.85%
same,"tail-withdrawal latency, 40 min",[1]; [9],5.6 s and 5.8 s
same,%A-50 min,[1]; [9],45.26% and 30.66%
same,"tail-withdrawal latency, 50 min",[1]; [9],7.5 s and 5.5 s
same,%A-60 min,[1]; [9],13.14% and 45.26%
same,"tail-withdrawal latency, 60 min",[1]; [9],3.1 s and 7.5 s
same,%A-70 min,[1]; [9],19.71% and 12.41%
same,"tail-withdrawal latency, 70 min",[1]; [9],4 s and 3 s
same,%A-80 min,[1]; [9],8.03% and 1.46%
same,"tail-withdrawal latency, 80 min",[1]; [9],2.4 s and 1.5 s
same,%A-90 min,[1]; [9],2.92% and 5.11%
same,"tail-withdrawal latency, 90 min",[1]; [9],1.7 s and 2 s
same,%A-100 min,[1]; [9],0% and 2.92%
same,"tail-withdrawal latency, 100 min",[1]; [9],1.3 s and 1.7 s
same,%A-110 min,[1]; [9],0% and 0.73%
same,"tail-withdrawal latency, 110 min",[1]; [9],1.3 s and 1.4 s
same,antinociception in DOR KO mice vs WT,[1]; [10],remained intact
same,antinociception in KOR KO mice vs WT,[1]; [10],attenuated
same,antinociception in MOR KO mice vs WT,[1]; [10],attenuated
same,EC50,DOR [2]; EC50 cAMP inhibition hDOR,11.4 nM
same,Emax,"DOR [2]; HEK-293T, read-out: Emax% cAMP inhibition hDOR",38 ± 2%
same,Ki,DOR [3],60.1 nM
same,EC50,"mKOR; EC50 mKOR [35S]GTPγS, ± SEM",1.5 nM and 1.52 nM
same,Emax,mKOR; read-out: Emax mKOR [35S]GTPγS,39.3 ± 1.3%
same,agonism at 330 non-olfactory GPCRs (in words),330 non-olfactory GPCRs,selective for opioid receptors; also recorded: no potent activity was confirmed
same,Ki,MOR,0.39 nM
